Usually viability stands for a read-out of living cells in per cent, often relative to untreated cells. In general, EC50 refers to the midpoint of the concentration-response curve. Read a high EC50 as a need for much substance. As usually defined, the Kd is a measure of binding affinity in units of concentration.

Consider 16 compounds from patent publication US12441768B2, “Compositions and methods for treating endometriosis” (EndoMet Biosciences, Inc., priority 2018, dated 2025).

For series [1] the following is noted: % Viability non-Wnt responsive cells.
For series [2], the target named is Wnt-responsive promoter (TCF/LEF). The experiment in a line: Wnt-dependent luciferase reporter assay. The series is classed as cell-based, murine. In a few lines:
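Murine 3T3 fibroblasts carrying a TCF/LEF-driven luciferase reporter, stimulated with Wnt3a in the presence of increasing peptide concentrations or vehicle. Luminescence inhibition gave EC50 values in uM.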
(In general: Reporter assays use an easily measured gene product as a stand-in for the process of interest.)

Another series addresses T1, β-catenin (Homo sapiens, UniProt P35222).
T1 sequence (P35222 1-781): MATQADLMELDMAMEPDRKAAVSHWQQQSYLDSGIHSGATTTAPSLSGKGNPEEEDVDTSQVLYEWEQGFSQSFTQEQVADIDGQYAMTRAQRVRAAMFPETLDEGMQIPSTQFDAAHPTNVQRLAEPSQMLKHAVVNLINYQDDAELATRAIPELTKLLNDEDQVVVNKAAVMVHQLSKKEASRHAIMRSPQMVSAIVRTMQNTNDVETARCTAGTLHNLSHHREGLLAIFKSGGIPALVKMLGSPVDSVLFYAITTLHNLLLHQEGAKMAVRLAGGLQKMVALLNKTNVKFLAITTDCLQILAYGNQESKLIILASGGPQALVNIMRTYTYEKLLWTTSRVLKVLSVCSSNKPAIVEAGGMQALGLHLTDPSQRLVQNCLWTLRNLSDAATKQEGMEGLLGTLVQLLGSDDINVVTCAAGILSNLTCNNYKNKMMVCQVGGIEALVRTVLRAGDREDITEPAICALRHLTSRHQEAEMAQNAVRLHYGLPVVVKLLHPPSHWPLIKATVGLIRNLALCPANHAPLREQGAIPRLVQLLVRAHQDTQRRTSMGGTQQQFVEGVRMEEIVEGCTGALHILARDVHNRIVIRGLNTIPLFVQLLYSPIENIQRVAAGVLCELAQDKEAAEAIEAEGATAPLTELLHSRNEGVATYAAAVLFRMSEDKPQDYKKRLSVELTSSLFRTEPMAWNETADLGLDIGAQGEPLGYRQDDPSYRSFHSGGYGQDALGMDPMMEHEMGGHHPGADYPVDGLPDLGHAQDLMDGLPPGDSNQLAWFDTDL
The experiment in a line: KD50 measurement using competitive fluorescence polarization (FP) with labelled TCF4. In kind it is binding. Particulars: fluorescence polarization, β-catenin; for Kd: read-out: β-Cat FP KD. In outline: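 First, β-catenin at 100 nM is mixed with 5 nM labelled TCF4 at room temperature. Next, compound is added across serial dilutions (10 nM to 30 uM). Finally, fluorescence polarization is measured (ex 470 nm, em 520 nm); experiments are done three times.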
On the technique in general: Fluorescence polarisation rises when a labelled molecule tumbles more slowly, as on binding a larger partner.

Where a SMILES comes first, the peptide text is derived from it. The star is where a group is joined. Bn = c1ccc(C*)cc1

Turning to `CC[C@H](C)[C@H](NC(=O)[C@H](CC(C)C)NC(=O)[C@H](Cc1ccccc1)NC(=O)[C@H](Cc1c[nH]c2ccccc12)NC(=O)[C@H](CCSC)NC(=O)[C@H](CCCNC(=N)N)NC(=O)[C@H](CO)NC(=O)[C@@H](N)CCC(=O)O)C(=O)N[C@@H](CO)C(=O)N[C@@H](Cc1ccccc1)C(=O)N[C@@H](Cc1c[nH]c2ccccc12)C(N)=O` [compound 86] (H-ESRMWFLISFW-NH2), the viability in series [1] was 103%. The same compound had an EC50 in series [2] greater than 30 µM. For the same compound, the dissociation constant (Kd) at β-catenin was greater than 30 µM.

For `CC[C@H](C)[C@H](NC(=O)[C@H](CC(C)C)NC(=O)[C@H](Cc1ccccc1)NC(=O)[C@H](Cc1c[nH]c2ccccc12)NC(=O)[C@H](CCSC)NC(=O)[C@H](CCCNC(=N)N)NC(=O)[C@H](CO)NC(=O)[C@@H](N)CCCCN)C(=O)N[C@@H](CO)C(=O)N[C@@H](Cc1ccccc1)C(=O)N[C@@H](Cc1c[nH]c2ccccc12)C(N)=O` [compound 83] (H-KSRMWFLISFW-NH2), in series [1], the viability was found to be 90.9%. Moreover, the EC50 in series [2] was greater than 30 µM. Besides, the Kd on β-catenin is greater than 30 µM.

For `CC[C@H](C)[C@@H]1NC(=O)[C@H](CC(C)C)NC(=O)[C@H]([C@@H](C)CC)NC(=O)[C@H](Cc2c[nH]c3ccccc23)NC(=O)[C@@H](NC(C)=O)CCCCNC(=O)CC[C@@H](C(=O)O)NC(=O)[C@H](Cc2c[nH]c3ccccc23)NC(=O)[C@H](C)NC(=O)[C@H](CO)NC1=O` [compound 188] (HELM PEPTIDE1{[ac].K.W.I.L.I.S.A.W.E}$PEPTIDE1,PEPTIDE1,2:R3-10:R3$$$V2.0), in series [1], the viability worked out at 97.6%. In series [2], this compound had a concentration giving a half-maximal response (EC50) of less than 7.5 µM. In addition, at β-catenin, the “β-Cat FP Hill slope” value is reported as 0.7 and the Kd fell in the range of 10 to 30 µM.

On to `CC[C@H](C)[C@H](NC(=O)[C@H](CC(C)C)NC(=O)[C@@H](NC(=O)C(C)(Cc1c[nH]c2ccccc12)NC(=O)[C@@H](N)CCSC)[C@@H](C)CC)C(=O)N[C@@H](CS)C(=O)N[C@@H](Cc1ccccc1)C(=O)N[C@@H](Cc1c[nH]c2ccccc12)C(=O)NCC(=O)O` (stereo partly drawn) [compound 132] (HELM PEPTIDE1{M.[CC(Cc1c[nH]c2ccccc12)(N[*:1])C(=O)[*:2]].I.L.I.C.F.W.G}$$$$V2.0), for which the viability in series [1] amounted to 102%. Besides, in series [2], the EC50 is 7.5 to 15 µM. Also, at β-catenin, the “β-Cat FP Hill slope” value is reported as 0.7 and the Kd is less than 0.4 µM.

In the case of `CC[C@H](C)[C@H](NC(=O)[C@H](CC(C)C)NC(=O)[C@H](C)NC(=O)[C@H](Cc1c[nH]c2ccccc12)NC(=O)[C@@H](N)CCSC)C(=O)N[C@@H](CO)C(=O)N[C@@H](Cc1ccccc1)C(=O)N[C@@H](Cc1c[nH]c2ccccc12)C(=O)NCC(=O)O` [compound 156] (H-MWALISFWG-OH), the viability in series [1] worked out at 102%. The compound also came in with an EC50 in series [2] of less than 7.5 µM. Besides, the dissociation constant (Kd) on β-catenin was greater than 30 µM.

Consider `CC[C@H](C)[C@H](NC(=O)[C@H](CC(C)C)NC(=O)[C@@H](NC(=O)[C@H](Cc1c[nH]c2ccccc12)NC(=O)[C@H](CCSC)NC(=O)[C@@H](N)Cc1c[nH]cn1)[C@@H](C)CC)C(=O)N[C@@H](CS)C(=O)N[C@@H](Cc1ccccc1)C(=O)N[C@@H](Cc1c[nH]c2ccccc12)C(=O)NCC(=O)O` [compound 114] (H-HMWILICFWG-OH), for which, in series [1], the viability worked out at 123%. In series [2], this compound showed an EC50 of less than 7.5 µM. In addition, on β-catenin, the “β-Cat FP Hill slope” value is 0.7 and the dissociation constant Kd was in the range of 1 to 10 µM.

Take `CC[C@H](C)[C@H](NC(=O)[C@H](CC(C)C)NC(=O)[C@H](Cc1ccccc1)NC(=O)[C@H](Cc1c[nH]c2ccccc12)NC(=O)[C@@H](N)CC(=O)O)C(=O)N[C@@H](CS)C(=O)N[C@@H](Cc1ccccc1)C(=O)N[C@@H](Cc1c[nH]c2ccccc12)C(=O)NCC(=O)O` [compound 142] (H-DWFLICFWG-OH): the viability in series [1] turned out to be 108%. The EC50 in series [2] was less than 7.5 µM. For the same compound, on β-catenin, the “β-Cat FP Hill slope” value came to 1.15 and the Kd was less than 0.4 µM.

`CC[C@H](C)[C@H](NC(=O)[C@H](Cc1c[nH]c2ccccc12)NC(=O)[C@@H](N)CCSC)C(=O)N[C@@H](CC(C)C)C(=O)N[C@H](C(=O)NC(C)(CO)C(=O)N[C@@H](Cc1ccccc1)C(=O)N[C@@H](Cc1c[nH]c2ccccc12)C(=O)NCC(=O)O)[C@@H](C)CC` (stereo partly drawn) [compound 136] (HELM PEPTIDE1{M.W.I.L.I.[CC(CO)(N[*:1])C(=O)[*:2]].F.W.G}$$$$V2.0): in series [1], the viability is 106%. This compound showed an EC50 in series [2] greater than 30 µM. For the same compound, on β-catenin, the “β-Cat FP Hill slope” value is on record as 0.9 and the dissociation constant Kd was 0.4 to 1 µM.

As for `CC[C@H](C)[C@@H]1NC(=O)[C@H](CC(C)C)NC(=O)[C@H](Cc2ccccc2)NC(=O)[C@H](Cc2c[nH]c3ccccc23)NC(=O)[C@H](CCSC)NC(=O)CCCCCNC(=O)C[C@@H](C(=O)O)NC(=O)[C@H](Cc2c[nH]c3ccccc23)NC(=O)[C@H](C)NC(=O)[C@H](CS)NC1=O` [compound 192] (HELM PEPTIDE1{[O=C(CCCCCN[*:1])[*:2]].M.W.F.L.I.C.A.W.D}$PEPTIDE1,PEPTIDE1,1:R1-10:R3$$$V2.0), in series [1], the viability was determined as 103%. In series [2], this compound returned an EC50 of less than 7.5 µM. On β-catenin, the “β-Cat FP Hill slope” value turned out to be 1.33 and the Kd is less than 0.4 µM.

For `CC[C@H](C)[C@H](NC(=O)[C@H](CC(C)C)NC(=O)[C@@H](NC(=O)[C@H](Cc1c[nH]c2ccccc12)NC(=O)[C@@H](N)CCSC)[C@@H](C)CC)C(=O)N[C@@H](COCc1ccccc1)C(=O)N[C@@H](Cc1ccccc1)C(=O)N[C@@H](Cc1c[nH]c2ccccc12)C(=O)NCC(=O)O` [compound 146] (H-MWILIS(Bn)FWG-OH), in series [1], the viability was 99.1%. The EC50 in series [2] was greater than 30 µM. Moreover, at β-catenin, the Kd is greater than 30 µM.

As for `CC[C@H](C)[C@@H]1NC(=O)[C@H](CC(C)C)NC(=O)[C@H](Cc2ccc(O)cc2)NC(=O)[C@H](Cc2c[nH]c3ccccc23)NC(=O)[C@H](CCSC)NC(=O)[C@H](CCCNC(=N)N)NC(=O)[C@H](CO)NC(=O)[C@@H](N)CCCCNC(=O)[C@H](Cc2c[nH]c3ccccc23)NC(=O)[C@H](Cc2ccccc2)NC(=O)[C@H](CO)NC1=O` [compound 32] (HELM PEPTIDE1{K.S.R.M.W.Y.L.I.S.F.W}$PEPTIDE1,PEPTIDE1,1:R3-11:R2$$$V2.0), the viability in series [1] stood at 93%. Also, the EC50 in series [2] is greater than 30 µM. The Kd on β-catenin was greater than 30 µM.

Consider `CC[C@H](C)[C@H](NC(=O)[C@H](CC(C)C)NC(=O)[C@H](Cc1ccccc1)NC(=O)[C@H](C)NC(=O)[C@@H](N)CCSC)C(=O)N[C@@H](CO)C(=O)N[C@@H](Cc1ccccc1)C(=O)N[C@@H](Cc1c[nH]c2ccccc12)C(=O)NCC(=O)O` [compound 210] (H-MAFLISFWG-OH), for which, in series [1], the viability is 96.4%. Besides, in series [2], the half-maximal effective concentration (EC50) is less than 7.5 µM. Besides, on β-catenin, the “β-Cat FP Hill slope” value came to 0.6 and the Kd is 1 to 10 µM.

As for `CC[C@H](C)[C@H](NC(=O)[C@H](Cc1c[nH]c2ccccc12)NC(=O)[C@@H](N)CCSC)C(=O)N[C@@H](CC(C)C)C(=O)N[C@H](C(=O)N[C@@H](CS)C(=O)NC(C)(Cc1ccccc1)C(=O)N[C@@H](Cc1c[nH]c2ccccc12)C(=O)NCC(=O)O)[C@@H](C)CC` (stereo partly drawn) [compound 121] (HELM PEPTIDE1{M.W.I.L.I.C.[CC(Cc1ccccc1)(N[*:1])C(=O)[*:2]].W.G}$$$$V2.0), the viability in series [1] turned out to be 150%. The EC50 in series [2] was less than 7.5 µM. On β-catenin, the “β-Cat FP Hill slope” value stood at 0.74 and the equilibrium dissociation constant (Kd) was less than 0.4 µM.

As for `CC[C@H](C)[C@H](NC(=O)[C@H](CC(C)C)NC(=O)[C@H](Cc1ccccc1)NC(=O)[C@H](Cc1c[nH]c2ccccc12)NC(=O)[C@H](Cc1c[nH]cn1)NC(=O)[C@H](CCCNC(=N)N)NC(=O)[C@H](CO)NC(=O)[C@@H](N)CCSC)C(=O)N[C@@H](CO)C(=O)N[C@@H](Cc1ccccc1)C(=O)N[C@@H](Cc1c[nH]c2ccccc12)C(N)=O` [compound 88] (H-MSRHWFLISFW-NH2), the viability in series [1] turned out to be 105%. The compound further returned a 50% effective concentration (EC50) in series [2] greater than 30 µM. For the same compound, the Kd on β-catenin is greater than 30 µM.

On to `CC[C@H](C)[C@H](NC(=O)[C@H](CC(C)C)NC(=O)[C@H](Cc1ccccc1)NC(=O)[C@H](Cc1c[nH]c2ccccc12)NC(=O)[C@@H](N)CCSC)C(=O)N[C@@H](CO)C(=O)N[C@@H](Cc1ccccc1)C(=O)N[C@@H](C)C(=O)NCC(=O)O` [compound 161] (H-MWFLISFAG-OH), for which the viability in series [1] stood at 103%. For the same compound, the EC50 in series [2] was 15 to 22.5 µM. Moreover, on β-catenin, the Kd was greater than 30 µM.

Turning to `CC[C@H](C)[C@@H]1NC(=O)[C@H](CC(C)C)NC(=O)[C@H](Cc2ccccc2)NC(=O)[C@H](Cc2c[nH]c3ccccc23)NC(=O)[C@@H](NC(C)=O)CCCCNC(=O)C[C@@H](C(=O)O)NC(=O)[C@H](Cc2c[nH]c3ccccc23)NC(=O)[C@H](C)NC(=O)[C@H](CS)NC1=O` [compound 169] (HELM PEPTIDE1{[ac].K.W.F.L.I.C.A.W.D}$PEPTIDE1,PEPTIDE1,2:R3-10:R3$$$V2.0), the viability in series [1] was 93.5%. The compound also displayed an EC50 in series [2] of less than 7.5 µM. At β-catenin, the “β-Cat FP Hill slope” value came out at 0.7 and the dissociation constant Kd fell in the range of 1 to 10 µM.
